Source: ChEMBL document CHEMBL1201862, “PubChem BioAssay data set” (2004)
One block for each molecule: values may come before it. The source made the active and inactive calls.

Legend:
[1] = blockers of bursicon-stimulated LGR2 cAMP reporter – cell-based, HEK293, CRE-luciferase reporter, cherry pick, set 2, dose response (AID 743343); type: functional;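 further: transfected cells were stimulated with diluted bursicon conditioned medium after compound addition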
[2] = HEK-293T viability loss after treatment – luminescence, T-cell screen hits, cytotoxicity control for TCR NF-kB inhibitor project, dose response (AID 489026); type: functional, cell-based;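 further: cells exposed to compound about 14 hours before the viability readout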
Hexokinase HKDC1 = molecular target: T1, Hexokinase HKDC1 (Homo sapiens, UniProt Q2TB90); assay: inhibition of HKDC1 glucose phosphorylation – biochemical, W721R variant, dose response (AID 504729); type: functional
T1 sequence (Q2TB90 whole entry): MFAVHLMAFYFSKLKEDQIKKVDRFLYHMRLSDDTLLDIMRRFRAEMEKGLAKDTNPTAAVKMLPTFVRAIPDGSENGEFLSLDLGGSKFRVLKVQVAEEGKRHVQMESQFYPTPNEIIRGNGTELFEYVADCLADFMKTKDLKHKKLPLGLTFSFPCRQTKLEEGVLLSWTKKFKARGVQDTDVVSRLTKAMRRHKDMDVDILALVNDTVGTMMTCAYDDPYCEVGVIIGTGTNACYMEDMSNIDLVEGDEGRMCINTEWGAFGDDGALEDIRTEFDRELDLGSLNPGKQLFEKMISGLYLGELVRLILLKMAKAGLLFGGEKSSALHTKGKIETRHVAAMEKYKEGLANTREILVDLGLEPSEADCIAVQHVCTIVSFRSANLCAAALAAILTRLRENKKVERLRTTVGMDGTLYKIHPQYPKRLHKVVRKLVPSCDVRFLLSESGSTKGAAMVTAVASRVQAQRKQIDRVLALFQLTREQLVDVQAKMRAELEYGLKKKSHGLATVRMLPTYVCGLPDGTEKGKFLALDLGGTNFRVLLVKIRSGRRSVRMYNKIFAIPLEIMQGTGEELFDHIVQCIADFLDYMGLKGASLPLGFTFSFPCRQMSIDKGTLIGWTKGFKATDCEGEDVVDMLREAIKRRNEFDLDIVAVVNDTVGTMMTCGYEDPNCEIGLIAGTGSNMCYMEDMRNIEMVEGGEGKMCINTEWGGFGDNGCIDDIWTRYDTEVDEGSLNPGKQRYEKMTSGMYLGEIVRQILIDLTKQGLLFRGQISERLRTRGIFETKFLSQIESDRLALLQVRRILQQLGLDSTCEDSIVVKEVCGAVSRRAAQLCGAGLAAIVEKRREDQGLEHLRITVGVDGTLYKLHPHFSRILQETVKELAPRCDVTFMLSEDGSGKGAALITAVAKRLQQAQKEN

[3] = Fluorescence-based cell-based high throughput dose response assay for inhibitors of the interaction of nucleotide-binding oligomerization domain containing 2 (NOD2) and the receptor-interacting serine-threonine kinase 2 (RIPK2).; type: functional; details: Homo sapiens
[4] = molecular target: T2, Rac GTPase-activating protein 1 (Homo sapiens, UniProt Q9H0H5); assay: blockers of MgcRacGAP-driven Rac1 GTP hydrolysis – biochemical, ADP Hunter fluorescence, primary and confirmatory, confirmation (AID 624330); type: functional
T2 sequence (Q9H0H5 whole entry): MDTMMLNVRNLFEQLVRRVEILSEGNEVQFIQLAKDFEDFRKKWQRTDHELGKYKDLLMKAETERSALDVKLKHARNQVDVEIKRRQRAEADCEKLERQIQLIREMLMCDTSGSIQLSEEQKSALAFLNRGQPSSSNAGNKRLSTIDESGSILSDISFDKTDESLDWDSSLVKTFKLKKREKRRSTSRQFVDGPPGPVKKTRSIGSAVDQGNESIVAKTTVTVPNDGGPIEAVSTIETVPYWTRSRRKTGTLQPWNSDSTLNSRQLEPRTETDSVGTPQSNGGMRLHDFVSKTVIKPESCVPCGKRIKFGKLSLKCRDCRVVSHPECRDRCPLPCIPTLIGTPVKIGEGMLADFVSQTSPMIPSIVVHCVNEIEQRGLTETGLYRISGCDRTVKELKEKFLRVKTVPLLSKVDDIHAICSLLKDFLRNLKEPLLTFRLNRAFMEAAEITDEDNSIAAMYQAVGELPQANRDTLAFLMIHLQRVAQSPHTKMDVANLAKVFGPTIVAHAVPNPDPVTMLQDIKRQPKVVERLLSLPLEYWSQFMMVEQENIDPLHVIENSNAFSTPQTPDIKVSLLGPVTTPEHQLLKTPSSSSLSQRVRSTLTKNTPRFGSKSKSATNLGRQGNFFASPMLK

[5] = molecular target: Protein kinase C iota type (Homo sapiens, UniProt P41743); type: functional;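 further: measured within a kinome-wide kinase panel, PRKCI as panel member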
[6] = molecular target: Receptor tyrosine-protein kinase erbB-2 (Homo sapiens, UniProt P04626); assay: Navigating the Kinome. Panel member name: ERBB2; type: functional
[7] = molecular target: MAP/microtubule affinity-regulating kinase 3 (Homo sapiens, UniProt P27448); type: functional;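 further: MARK3 affinity measured as one member of a kinome panel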
[8] = molecular target: Cyclin-dependent kinase 5 (Homo sapiens, UniProt Q00535); type: functional;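 further: CDK5 measured as one member of a kinase profiling panel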
[9] = molecular target: ALK tyrosine kinase receptor (Homo sapiens, UniProt Q9UM73); type: functional;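 further: ALK tested as one member of a kinase panel screen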
[10] = molecular target: Dual specificity tyrosine-phosphorylation-regulated kinase 1A (Homo sapiens, UniProt Q13627); type: functional;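 further: measured against DYRK1A as one member of a broad kinome profiling panel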
[11] = molecular target: Casein kinase I isoform delta (Homo sapiens, UniProt P48730); type: functional;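 further: measured as one member (CSNK1D) of a kinome panel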
[12] = molecular target: Megakaryocyte-associated tyrosine-protein kinase (Homo sapiens, UniProt P42679); type: functional;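 further: affinity measured as one member of a kinase panel (Navigating the Kinome) against MATK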
[13] = molecular target: Tyrosine-protein kinase JAK3 (Homo sapiens, UniProt P52333); type: functional
[14] = molecular target: Receptor-type tyrosine-protein kinase FLT3 (Homo sapiens, UniProt P36888); type: functional;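 further: FLT3 was tested as one member of a kinome-wide kinase panel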
[15] = molecular target: Testis-specific serine/threonine-protein kinase 1 (Homo sapiens, UniProt Q9BXA7); type: functional
Focal adhesion kinase 1 = Focal adhesion kinase 1 (Homo sapiens, UniProt Q05397); type: functional;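 further: measured as one member of a kinome panel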
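Wherever EC50 is given: potency for inhibition of parasite growth.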

Testis-specific serine/threonine-protein kinase 1, sequence (Q9BXA7 whole entry): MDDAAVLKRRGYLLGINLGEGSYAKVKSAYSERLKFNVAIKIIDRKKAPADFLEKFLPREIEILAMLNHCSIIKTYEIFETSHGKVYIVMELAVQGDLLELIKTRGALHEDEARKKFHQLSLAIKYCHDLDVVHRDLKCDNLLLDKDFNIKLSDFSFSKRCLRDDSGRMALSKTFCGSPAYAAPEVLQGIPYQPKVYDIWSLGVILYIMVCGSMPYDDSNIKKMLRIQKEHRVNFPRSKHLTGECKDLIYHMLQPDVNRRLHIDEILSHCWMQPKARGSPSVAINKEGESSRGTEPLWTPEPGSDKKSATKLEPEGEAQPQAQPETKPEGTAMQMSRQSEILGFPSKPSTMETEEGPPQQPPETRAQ
Protein kinase C iota type, sequence (P41743 whole entry): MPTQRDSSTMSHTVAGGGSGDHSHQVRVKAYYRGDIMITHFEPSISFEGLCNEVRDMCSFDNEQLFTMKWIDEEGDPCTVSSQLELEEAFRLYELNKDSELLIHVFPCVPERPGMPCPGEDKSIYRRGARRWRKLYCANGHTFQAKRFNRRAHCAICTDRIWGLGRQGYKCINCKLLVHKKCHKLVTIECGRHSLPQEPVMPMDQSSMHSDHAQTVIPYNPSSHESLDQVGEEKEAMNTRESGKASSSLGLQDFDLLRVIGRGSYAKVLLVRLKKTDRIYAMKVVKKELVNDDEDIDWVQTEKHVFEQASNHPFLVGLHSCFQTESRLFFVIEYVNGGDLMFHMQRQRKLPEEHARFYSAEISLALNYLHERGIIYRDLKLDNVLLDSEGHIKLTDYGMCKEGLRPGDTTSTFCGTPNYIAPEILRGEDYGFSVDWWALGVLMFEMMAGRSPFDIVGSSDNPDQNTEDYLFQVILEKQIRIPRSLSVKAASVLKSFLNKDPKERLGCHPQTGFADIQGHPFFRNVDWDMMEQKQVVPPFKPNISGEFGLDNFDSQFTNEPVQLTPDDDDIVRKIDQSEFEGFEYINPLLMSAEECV
Tyrosine-protein kinase JAK3, sequence (P52333 whole entry): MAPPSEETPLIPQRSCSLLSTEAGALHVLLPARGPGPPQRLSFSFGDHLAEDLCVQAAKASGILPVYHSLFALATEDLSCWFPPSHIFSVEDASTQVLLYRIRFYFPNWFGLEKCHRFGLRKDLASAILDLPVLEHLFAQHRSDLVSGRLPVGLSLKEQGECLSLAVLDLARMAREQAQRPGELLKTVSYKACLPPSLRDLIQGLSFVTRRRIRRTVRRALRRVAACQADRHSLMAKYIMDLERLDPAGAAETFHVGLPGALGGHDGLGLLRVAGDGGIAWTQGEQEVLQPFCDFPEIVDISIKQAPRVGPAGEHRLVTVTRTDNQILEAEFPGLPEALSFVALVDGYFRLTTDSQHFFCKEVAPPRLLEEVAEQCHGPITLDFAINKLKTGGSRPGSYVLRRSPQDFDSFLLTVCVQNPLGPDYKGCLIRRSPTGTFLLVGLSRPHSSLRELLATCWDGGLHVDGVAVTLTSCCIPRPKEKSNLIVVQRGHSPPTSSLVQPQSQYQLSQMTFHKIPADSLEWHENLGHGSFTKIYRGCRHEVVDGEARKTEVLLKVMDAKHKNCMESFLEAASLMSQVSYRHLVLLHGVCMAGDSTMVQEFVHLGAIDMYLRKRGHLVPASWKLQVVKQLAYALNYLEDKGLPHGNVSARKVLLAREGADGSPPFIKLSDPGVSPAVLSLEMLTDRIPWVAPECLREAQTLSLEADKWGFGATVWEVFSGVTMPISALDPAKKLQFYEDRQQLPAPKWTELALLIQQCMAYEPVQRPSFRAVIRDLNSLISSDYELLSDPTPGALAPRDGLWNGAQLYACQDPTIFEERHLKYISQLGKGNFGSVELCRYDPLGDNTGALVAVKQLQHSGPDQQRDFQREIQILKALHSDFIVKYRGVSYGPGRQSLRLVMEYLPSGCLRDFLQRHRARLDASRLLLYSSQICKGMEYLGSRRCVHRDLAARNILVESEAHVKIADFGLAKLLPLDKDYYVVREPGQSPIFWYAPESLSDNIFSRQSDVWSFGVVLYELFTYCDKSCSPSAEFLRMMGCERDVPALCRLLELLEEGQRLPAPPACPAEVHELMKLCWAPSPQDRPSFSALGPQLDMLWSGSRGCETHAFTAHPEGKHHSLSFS
Receptor-type tyrosine-protein kinase FLT3, sequence (P36888 whole entry): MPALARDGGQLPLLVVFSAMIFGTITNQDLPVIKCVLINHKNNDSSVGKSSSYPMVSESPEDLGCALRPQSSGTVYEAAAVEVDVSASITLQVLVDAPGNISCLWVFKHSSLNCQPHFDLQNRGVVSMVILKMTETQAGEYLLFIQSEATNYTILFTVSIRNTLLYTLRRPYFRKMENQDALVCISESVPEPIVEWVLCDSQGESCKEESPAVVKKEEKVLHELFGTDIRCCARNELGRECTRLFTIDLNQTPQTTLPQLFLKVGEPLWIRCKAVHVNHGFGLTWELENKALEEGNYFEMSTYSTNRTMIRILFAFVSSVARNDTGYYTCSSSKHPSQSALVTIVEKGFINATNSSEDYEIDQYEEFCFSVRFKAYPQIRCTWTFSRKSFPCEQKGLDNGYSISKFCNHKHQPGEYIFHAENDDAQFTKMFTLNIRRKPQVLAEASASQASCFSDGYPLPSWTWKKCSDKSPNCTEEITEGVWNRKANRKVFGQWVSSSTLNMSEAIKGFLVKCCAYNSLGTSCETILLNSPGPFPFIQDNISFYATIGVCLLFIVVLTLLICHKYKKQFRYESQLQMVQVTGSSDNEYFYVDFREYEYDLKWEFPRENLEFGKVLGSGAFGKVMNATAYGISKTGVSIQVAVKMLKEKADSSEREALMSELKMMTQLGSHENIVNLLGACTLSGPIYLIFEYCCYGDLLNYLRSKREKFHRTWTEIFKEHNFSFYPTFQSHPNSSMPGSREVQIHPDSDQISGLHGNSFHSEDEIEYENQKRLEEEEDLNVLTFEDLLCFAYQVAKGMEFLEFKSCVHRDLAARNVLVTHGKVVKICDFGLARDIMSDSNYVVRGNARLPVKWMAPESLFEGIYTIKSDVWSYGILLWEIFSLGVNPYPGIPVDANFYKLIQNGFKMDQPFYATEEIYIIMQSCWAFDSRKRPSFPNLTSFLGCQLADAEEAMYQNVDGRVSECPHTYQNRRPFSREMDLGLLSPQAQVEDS
Cyclin-dependent kinase 5, sequence (Q00535 whole entry): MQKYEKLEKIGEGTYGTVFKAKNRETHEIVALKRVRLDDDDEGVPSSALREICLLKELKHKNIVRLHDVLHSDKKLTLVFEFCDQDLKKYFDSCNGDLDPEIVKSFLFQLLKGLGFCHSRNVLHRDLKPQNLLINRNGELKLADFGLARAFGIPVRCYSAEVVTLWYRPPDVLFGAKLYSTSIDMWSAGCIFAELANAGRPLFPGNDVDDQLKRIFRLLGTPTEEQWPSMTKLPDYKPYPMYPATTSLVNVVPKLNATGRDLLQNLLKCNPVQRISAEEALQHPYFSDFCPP
ALK tyrosine kinase receptor, sequence (Q9UM73 whole entry): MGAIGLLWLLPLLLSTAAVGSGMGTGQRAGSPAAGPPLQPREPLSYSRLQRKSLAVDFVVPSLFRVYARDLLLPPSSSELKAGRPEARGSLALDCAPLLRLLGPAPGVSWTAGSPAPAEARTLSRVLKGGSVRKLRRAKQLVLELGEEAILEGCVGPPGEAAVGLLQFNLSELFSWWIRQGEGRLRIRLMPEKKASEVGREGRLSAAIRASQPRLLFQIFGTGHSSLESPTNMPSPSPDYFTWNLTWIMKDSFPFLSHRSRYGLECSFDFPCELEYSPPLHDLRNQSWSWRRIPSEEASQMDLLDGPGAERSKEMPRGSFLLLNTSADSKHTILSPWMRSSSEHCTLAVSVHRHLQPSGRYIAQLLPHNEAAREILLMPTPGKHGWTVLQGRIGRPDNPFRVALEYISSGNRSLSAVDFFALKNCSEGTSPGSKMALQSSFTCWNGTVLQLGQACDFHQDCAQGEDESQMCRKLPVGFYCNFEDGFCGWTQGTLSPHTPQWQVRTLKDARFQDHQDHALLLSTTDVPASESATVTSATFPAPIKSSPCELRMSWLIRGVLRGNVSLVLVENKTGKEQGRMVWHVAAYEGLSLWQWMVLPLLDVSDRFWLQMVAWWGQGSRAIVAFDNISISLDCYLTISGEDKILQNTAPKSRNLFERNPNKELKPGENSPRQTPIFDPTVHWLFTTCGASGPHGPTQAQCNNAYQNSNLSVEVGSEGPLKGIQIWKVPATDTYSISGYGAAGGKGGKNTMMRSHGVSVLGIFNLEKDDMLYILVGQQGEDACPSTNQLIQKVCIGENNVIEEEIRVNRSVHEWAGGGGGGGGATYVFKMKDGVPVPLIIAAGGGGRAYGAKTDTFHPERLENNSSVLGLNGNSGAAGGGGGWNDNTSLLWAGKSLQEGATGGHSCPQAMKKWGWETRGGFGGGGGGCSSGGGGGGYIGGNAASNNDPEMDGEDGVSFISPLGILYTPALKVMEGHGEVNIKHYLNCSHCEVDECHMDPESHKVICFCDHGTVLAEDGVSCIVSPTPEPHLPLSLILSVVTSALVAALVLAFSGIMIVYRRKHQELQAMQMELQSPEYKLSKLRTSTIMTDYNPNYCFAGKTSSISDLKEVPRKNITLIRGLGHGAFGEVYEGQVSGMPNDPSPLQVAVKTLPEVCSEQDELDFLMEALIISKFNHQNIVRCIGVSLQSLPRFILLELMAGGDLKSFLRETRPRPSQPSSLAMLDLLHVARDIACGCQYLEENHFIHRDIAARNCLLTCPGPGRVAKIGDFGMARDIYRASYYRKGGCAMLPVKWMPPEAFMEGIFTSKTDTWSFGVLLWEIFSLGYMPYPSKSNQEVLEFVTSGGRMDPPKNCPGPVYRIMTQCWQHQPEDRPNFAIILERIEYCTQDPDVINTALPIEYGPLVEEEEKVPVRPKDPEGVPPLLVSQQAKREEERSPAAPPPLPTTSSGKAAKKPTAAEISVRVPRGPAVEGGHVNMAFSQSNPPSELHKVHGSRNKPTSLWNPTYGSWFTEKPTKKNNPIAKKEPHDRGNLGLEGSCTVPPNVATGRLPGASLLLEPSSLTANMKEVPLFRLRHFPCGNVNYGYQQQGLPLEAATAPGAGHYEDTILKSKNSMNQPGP

Structure (SMILES): Cc1cnc(NC(=O)c2sc3ccccc3c2Cl)s1
AC50 [1]: 3070 nM (active)

Structure (SMILES): Cc1ccc(Nc2cc(C)nn2-c2nc(C)cc(O)n2)cc1
EC50 (cells): 74 nM (active) | IC50 [2]: > 80000 nM (inactive)

Structure (SMILES): Cc1ccc(C(=O)c2c(C)oc3c2C(=O)C(=O)c2ccccc2-3)cc1
IC50 (Hexokinase HKDC1): 6940 nM (active) | IC50 [3]: 6830 nM (active)

Structure (SMILES): CN(C)c1ncc(C2=C(Cl)C(=O)C(N3CCCC3)=C(Cl)C2=O)s1
IC50 [4]: 89500 nM (active)

Ki [5]: > 5010 nM (inactive) | Ki [6]: > 1580 nM (inactive) | Ki [7]: 2510 nM (active) | Ki [8]: > 10000 nM (inactive) | Ki [9]: > 1260 nM (inactive) | Ki [10]: 1000 nM (active) | Ki [11]: 5010 nM (active) | Ki [12]: > 2000 nM (inactive) | Ki [13]: > 1580 nM (inactive) | Ki [14]: 158 nM (active) | Ki [15]: > 1580 nM (inactive) | Ki (Focal adhesion kinase 1): > 1580 nM (inactive)
Structure (SMILES): O=C1NC(=S)SC1=C1C(=O)Nc2ccc(Br)cc21
